Reference: ChEMBL document CHEMBL3120157, “Structures and solution conformational dynamics of stylissamides G and H from the Bahamian sponge Stylissa caribica” (J Nat Prod, 2014)
Residues, ends and D or L forms follow the SMILES beside them.

System: HCT-116
Assay: Cytotoxicity against human HCT116 cells assessed as cell viability by MTS assay
Format: functional, cell-based

| SMILES | EC50 [µM] |
| --- | --- |
| CC[C@H](C)[C@@H]1NC(=O)[C@H](CC(C)C)NC(=O)[C@@H]2CCCN2C(=O)[C@H](Cc2ccccc2)NC(=O)[C@@H]2CCCN2C(=O)[C@H](Cc2ccccc2)NC(=O)[C@@H]2CCCN2C1=O (cyclo(FPFPLIP)) | > 200 |
| CC[C@H](C)[C@@H]1NC(=O)[C@@H]2CCCN2C(=O)[C@H](Cc2c[nH]c3ccccc23)NC(=O)[C@@H]2CCCN2C(=O)[C@H](C(C)C)NC(=O)[C@H](Cc2ccccc2)NC(=O)[C@H](CO)NC1=O (cyclo(FVPWPIS)) | 5.7 |
